Patent publication US4684664A, “Derivatives of β-(4-isocyano-1,2,3,4-diepoxycyclopentyl) acrylic acid” (Kureha Kagaku Kogyo Kabushiki Kaisha, priority 1984, dated 1987)
≈ marks a conversion by molar mass, not a printed value. Like-named read-outs stand apart in the source and are kept apart here.

How the values were obtained:
Type in all cases: cell-based
[1] = test system: Staphylococcus aureus FDA 209PJc-1; test: Antibacterial activity, agar-dilution MIC, organism No. 1; conditions: Staphylococcus aureus
Method in brief: (§1)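 MICs were determined by agar dilution on bouillon-agar medium. The value is the minimum concentration of specimen inhibiting growth, expressed as μg/ml of culture medium.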

[2] = test system: Staphylococcus aureus Terajima; test: Antibacterial activity, agar-dilution MIC, organism No. 2; conditions: Staphylococcus aureus, read-out: Minimum Inhibitory Concentration
Method in brief: as §1

[3] = test system: Staphylococcus aureus MS 353; test: Antibacterial activity, agar-dilution MIC, organism No. 3; conditions: Staphylococcus aureus
Method in brief: as §1

[4] = test system: Streptococcus pyogenes Cook; test: Antibacterial activity, agar-dilution MIC, organism No. 4; conditions: Streptococcus pyogenes, read-out: Minimum Inhibitory Concentration
Method in brief: as §1

[5] = test system: Escherichia coli NIHJ-JC-2; test: Antibacterial activity, agar-dilution MIC, organism No. 5; conditions: Escherichia coli
Method in brief: as §1

[6] = test system: Escherichia coli K12 C600 IAM 1264; test: Antibacterial activity, agar-dilution MIC, organism No. 6; conditions: Escherichia coli
Method in brief: as §1

[7] = test system: Klebsiella pneumoniae PCI-602; test: Antibacterial activity, agar-dilution MIC, organism No. 7; conditions: Klebsiella pneumoniae
Method in brief: as §1

[8] = test system: Salmonella typhimurium IID 971; test: Antibacterial activity, agar-dilution MIC, organism No. 8; conditions: Salmonella enterica, read-out: Minimum Inhibitory Concentration
Method in brief: as §1

Salmonella typhi 901 = test: Antibacterial activity, agar-dilution MIC, organism No. 9; conditions: Salmonella enterica, TYPHI, read-out: Minimum Inhibitory Concentration
Method in brief: as §1

[9] = test system: Salmonella paratyphi-A 1015; test: Antibacterial activity, agar-dilution MIC, organism No. 10; conditions: Salmonella enterica, PARATYPHI, read-out: Minimum Inhibitory Concentration
Method in brief: as §1

[10] = test system: Salmonella shottmuelleri 8006; test: Antibacterial activity, agar-dilution MIC, organism No. 11
Method in brief: as §1

[11] = test system: Salmonella enteritidis G 14; test: Antibacterial activity, agar-dilution MIC, organism No. 12; conditions: Salmonella enterica, ENTERITIDIS, read-out: Minimum Inhibitory Concentration
Method in brief: as §1

[12] = test system: Serratia marcescens IAM 1184; test: Antibacterial activity, agar-dilution MIC, organism No. 13; conditions: Serratia marcescens
Text: Agar-dilution method was used for determination of the antibacterial activity and antifungal activity while using bouillon-agar culture medium, and the minimum inhibitory concentration of the specimen was expressed by μg/ml of the culture medium.

[13] = test system: Bacillus subtilis ATCC 6633; test: Antibacterial activity, agar-dilution MIC, organism No. 14; conditions: Bacillus subtilis
Method in brief: as §1

[14] = test system: Pseudomonas aeruginosa IFO 3445; test: Antibacterial activity, agar-dilution MIC, organism No. 15; conditions: Pseudomonas aeruginosa
Method in brief: as §1

[15] = test system: Pseudomonas aeruginosa NCTC 10490; test: Antibacterial activity, agar-dilution MIC, organism No. 16; conditions: Pseudomonas aeruginosa
Method in brief: as §1

[16] = test system: Pseudomonas aeruginosa PAO 1; test: Antibacterial activity, agar-dilution MIC, organism No. 17; conditions: Pseudomonas aeruginosa
Method in brief: as §1

[17] = test system: Proteus morganii IFO 3848; test: Antibacterial activity, agar-dilution MIC, organism No. 18; conditions: Morganella morganii
Method in brief: as §1

[18] = test system: Proteus mirabilis IFO 3849; test: Antibacterial activity, agar-dilution MIC, organism No. 19; conditions: Proteus mirabilis
Method in brief: as §1

Proteus vulgaris OX-19 = test: Antibacterial activity, agar-dilution MIC, organism No. 20; conditions: Proteus vulgaris
Method in brief: as §1

Proteus vulgaris HX-19 = test: Antibacterial activity, agar-dilution MIC, organism No. 21; conditions: Proteus vulgaris
Method in brief: as §1

[19] = test system: Proteus rettgeri IFO 3850; test: Antibacterial activity, agar-dilution MIC, organism No. 22; conditions: Providencia rettgeri
Method in brief: as §1

[20] = test system: Enterobacter aerogenes ATCC 13048; test: Antibacterial activity, agar-dilution MIC, organism No. 23; conditions: Klebsiella aerogenes
Method in brief: as §1

Enterobacter cloacae 963 = test: Antibacterial activity, agar-dilution MIC, organism No. 24
Method in brief: as §1

[21] = test system: Micrococcus luteus ATCC 9341; test: Antibacterial activity, agar-dilution MIC, organism No. 25; conditions: Micrococcus luteus
Method in brief: as §1

[22] = test system: Streptococcus pyogenes IFO 3340; test: Antibacterial activity, agar-dilution MIC, organism No. 26; conditions: Streptococcus pyogenes, IFO3340, read-out: Minimum Inhibitory Concentration
Method in brief: as §1

[23] = test system: Streptococcus faecium IFO 3826; test: Antibacterial activity, agar-dilution MIC, organism No. 27; conditions: Enterococcus faecium, IFO3826, read-out: Minimum Inhibitory Concentration
Method in brief: as §1

[24] = test system: Candida albicans IAM 4905; test: Antifungal activity, agar-dilution MIC, organism No. 29; conditions: Candida albicans
Method in brief: as §1

[25] = test system: Aspergillus niger IFO 6342; test: Antifungal activity, agar-dilution MIC, organism No. 30; conditions: Aspergillus niger
Method in brief: as §1

## [C-]#[N+]C12CC3(/C=C/C(=O)Nc4ccc(OC)cc4)OC3C1O2 (centres unmarked) [compound 53]
[1]; FDA209PJC1, read-out: Minimum Inhibitory Concentration
  MIC: < 0.05 µg/mL
[2]
  MIC: < 0.05 µg/mL
[3]; MS353, read-out: Minimum Inhibitory Concentration
  MIC: < 0.05 µg/mL
[4]
  MIC: 6.25 µg/mL (≈ 21 µM)
[5]; NIHJJC2, read-out: Minimum Inhibitory Concentration
  MIC: 12.5 µg/mL (≈ 41.9 µM)
[6]; IAM1264, read-out: Minimum Inhibitory Concentration
  MIC: 3.13 µg/mL (≈ 10.5 µM)
[7]; PCI602, read-out: Minimum Inhibitory Concentration
  MIC: < 0.05 µg/mL
[8]
  MIC: 1.56 µg/mL (≈ 5.23 µM)
Salmonella typhi 901
  MIC: 0.39 µg/mL (≈ 1.31 µM)
[9]
  MIC: < 0.05 µg/mL
[10]; Salmonella, 8006, read-out: Minimum Inhibitory Concentration
  MIC: < 0.05 µg/mL
[11]
  MIC: 0.39 µg/mL (≈ 1.31 µM)
[12]; IAM1184, read-out: Minimum Inhibitory Concentration
  MIC: 25 µg/mL (≈ 83.8 µM)
[13]; ATCC6633, read-out: Minimum Inhibitory Concentration
  MIC: 6.25 µg/mL (≈ 21 µM)
[14]; IFO3445, read-out: Minimum Inhibitory Concentration
  MIC: > 200 µg/mL
[15]; NCTC10490, read-out: Minimum Inhibitory Concentration
  MIC: > 200 µg/mL
[16]; PAO1, read-out: Minimum Inhibitory Concentration
  MIC: > 200 µg/mL
[17]; IFO3848, read-out: Minimum Inhibitory Concentration
  MIC: < 0.05 µg/mL
[18]; IFO3849, read-out: Minimum Inhibitory Concentration
  MIC: 3.13 µg/mL (≈ 10.5 µM)
Proteus vulgaris OX-19; OX19, read-out: Minimum Inhibitory Concentration
  MIC: < 0.05 µg/mL
Proteus vulgaris HX-19; HX19, read-out: Minimum Inhibitory Concentration
  MIC: < 0.05 µg/mL
[19]; IFO3850, read-out: Minimum Inhibitory Concentration
  MIC: 0.78 µg/mL (≈ 2.61 µM)
[20]; ATCC13048, read-out: Minimum Inhibitory Concentration
  MIC: > 200 µg/mL
Enterobacter cloacae 963; Enterobacter cloacae, 963, read-out: Minimum Inhibitory Concentration
  MIC: 50 µg/mL (≈ 168 µM)
[21]; ATCC9341, read-out: Minimum Inhibitory Concentration
  MIC: < 0.05 µg/mL
[22]
  MIC: 0.39 µg/mL (≈ 1.31 µM)
[23]
  MIC: 6.25 µg/mL (≈ 21 µM)
[24]; IAM4905, read-out: Minimum Inhibitory Concentration
  MIC: 0.79 µg/mL (≈ 2.65 µM)
[25]; IFO6342, read-out: Minimum Inhibitory Concentration
  MIC: 1.56 µg/mL (≈ 5.23 µM)

## [C-]#[N+]C12CC3(/C=C/C(=O)Nc4nnc(C)s4)OC3C1O2 (centres unmarked) [compound 71]
[1]; FDA209PJC1, Organism No. 1, bouillon-agar, read-out: Minimum Inhibitory Concentration
  MIC: 1.56 µg/mL (≈ 5.37 µM)
[2]; Organism No. 2, bouillon-agar
  MIC: 12.5 µg/mL (≈ 43.1 µM)
[3]; MS353, Organism No. 3, bouillon-agar, read-out: Minimum Inhibitory Concentration
  MIC: 6.25 µg/mL (≈ 21.5 µM)
[4]; Organism No. 4, bouillon-agar
  MIC: 12.5 µg/mL (≈ 43.1 µM)
[5]; NIHJJC2, Organism No. 5, bouillon-agar, read-out: Minimum Inhibitory Concentration
  MIC: > 200 µg/mL
[6]; IAM1264, Organism No. 6, bouillon-agar, read-out: Minimum Inhibitory Concentration
  MIC: > 200 µg/mL
[7]; PCI602, Organism No. 7, bouillon-agar, read-out: Minimum Inhibitory Concentration
  MIC: > 200 µg/mL
[8]; Organism No. 8, bouillon-agar
  MIC: > 200 µg/mL
Salmonella typhi 901
  MIC: 25 µg/mL (≈ 86.1 µM)
[9]
  MIC: 12.5 µg/mL (≈ 43.1 µM)
[10]; Salmonella, 8006, Organism No. 11, bouillon-agar, read-out: Minimum Inhibitory Concentration
  MIC: 100 µg/mL (≈ 344 µM)
[11]; Organism No. 12, bouillon-agar
  MIC: 200 µg/mL (≈ 689 µM)
[12]; IAM1184, Organism No. 13, bouillon-agar, read-out: Minimum Inhibitory Concentration
  MIC: > 200 µg/mL
[13]; ATCC6633, Organism No. 14, bouillon-agar, read-out: Minimum Inhibitory Concentration
  MIC: > 200 µg/mL
[14]; IFO3445, Organism No. 15, bouillon-agar, read-out: Minimum Inhibitory Concentration
  MIC: > 200 µg/mL
[15]; NCTC10490, Organism No. 16, bouillon-agar, read-out: Minimum Inhibitory Concentration
  MIC: > 200 µg/mL
[16]; PAO1, Organism No. 17, bouillon-agar, read-out: Minimum Inhibitory Concentration
  MIC: > 200 µg/mL
[17]; IFO3848, Organism No. 18, bouillon-agar, read-out: Minimum Inhibitory Concentration
  MIC: 12.5 µg/mL (≈ 43.1 µM)
[18]; IFO3849, Organism No. 19, bouillon-agar, read-out: Minimum Inhibitory Concentration
  MIC: > 200 µg/mL
Proteus vulgaris OX-19; OX19, Organism No. 20, bouillon-agar, read-out: Minimum Inhibitory Concentration
  MIC: 6.25 µg/mL (≈ 21.5 µM)
Proteus vulgaris HX-19; HX19, Organism No. 21, bouillon-agar, read-out: Minimum Inhibitory Concentration
  MIC: 6.25 µg/mL (≈ 21.5 µM)
[19]; IFO3850, Organism No. 22, bouillon-agar, read-out: Minimum Inhibitory Concentration
  MIC: > 200 µg/mL
[20]; ATCC13048, Organism No. 23, bouillon-agar, read-out: Minimum Inhibitory Concentration
  MIC: > 200 µg/mL
Enterobacter cloacae 963; Enterobacter cloacae, 963, Organism No. 24, bouillon-agar, read-out: Minimum Inhibitory Concentration
  MIC: > 200 µg/mL
[21]; ATCC9341, Organism No. 25, bouillon-agar, read-out: Minimum Inhibitory Concentration
  MIC: > 200 µg/mL
[24]; IAM4905, Organism No. 29, bouillon-agar, read-out: Minimum Inhibitory Concentration
  MIC: 12.5 µg/mL (≈ 43.1 µM)
[25]; IFO6342, Organism No. 30, bouillon-agar, read-out: Minimum Inhibitory Concentration
  MIC: 200 µg/mL (≈ 689 µM)
